Results: patent US20240092835A1, “NOVEL PEPTIDES CAPABLE OF ALTERING NK CELL ACTIVITY” (Massachusetts Institute of Technology, priority 2022, published 2024)
Where no end group is shown, it is not given here.

Legend:
NKG2A−/NKG2C− NK cells = assay: NK cell activation markers in control NKG2A-/NKG2C- NK cells incubated with peptide and K562 expressing HLA-E; type: cell-based, human
Outline: (§1)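 Human myelogenous leukemia K562 cells displaying HLA-E carry the test peptides (human or HCMV origin) and are presented to NK cells; surface activation markers are scored by percent positive cells.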

NKG2A−/NKG2C+ NK cells [1] = assay: NKG2A-/NKG2C+ NK cell activation with peptide and RMA-S cells expressing HLA-E; type: cell-based; conditions: RMA-S cells expressing HLA-E, NKG2A−/NKG2C+ NK cells
Experimental: An antigen processing-defective lymphoma cell line (RMA-S), with a low-level expression of HLA-E, were incubated with the novel peptides to determine the inhibitory strength on NKG2A−/NKG2C+NK cells relative to positive control sequences with differential effects ([…] (SEQ ID NO: 19)/VMAPRTLFL (SEQ ID NO: 18)). The effects of the peptides on NK cell inhibition were determined by measuring four markers of NK cell activation (CD107a, IFNG, TNF, CCL3) in NKG2A−/NKG2C+NK cells (FIGS. 2A-2D). Activation was indicated by an increase in percent cells positive for cell surface markers.

NKG2A−/NKG2C+ NK cells [2] = assay: NK cell activation markers in NKG2A-/NKG2C+ NK cells incubated with peptide and K562 expressing HLA-E (activation); type: cell-based, human; conditions: for effect on NKG2A−/NKG2C+ NK cell activation (in words): K562 expressing HLA-E, CD107a, IFNG, TNF, CCL3; for percentage of CCL3+ NK cells / percentage of CD107+ NK cells / percentage of IFNG+ NK cells / percentage of TNF+ NK cells: NKG2A-/NKG2C+ NK cells, K562/HLA-E
Outline: as §1

TAPARTMFL [human13, TAPARTMFL]
percentage CCL3+ NK cells (NKG2A−/NKG2C− NK cells; Trial 1): 37.2%
percentage CD107+ NK cells (NKG2A−/NKG2C− NK cells; Trial 1): 26.3%
percentage TNF+ NK cells (NKG2A−/NKG2C− NK cells; Trial 1): 3.65%
percentage of IFNG+ NK cells (NKG2A−/NKG2C− NK cells; Trial 1): 16.6%
percentage CCL3+ NK cells (NKG2A−/NKG2C− NK cells; Trial 2): 65.4%
percentage CD107+ NK cells (NKG2A−/NKG2C− NK cells; Trial 2): 43%
percentage TNF+ NK cells (NKG2A−/NKG2C− NK cells; Trial 2): 11.9%
percentage of IFNG+ NK cells (NKG2A−/NKG2C− NK cells; Trial 2): 32.5%
percentage CCL3+ NK cells (NKG2A−/NKG2C− NK cells; Trial 3): 56.2%
percentage CD107+ NK cells (NKG2A−/NKG2C− NK cells; Trial 3): 56.4%
percentage TNF+ NK cells (NKG2A−/NKG2C− NK cells; Trial 3): 23.2%
percentage of IFNG+ NK cells (NKG2A−/NKG2C− NK cells; Trial 3): 49.4%
percentage CCL3+ NK cells (NKG2A−/NKG2C− NK cells; Trial 4): 37.7%
percentage CD107+ NK cells (NKG2A−/NKG2C− NK cells; Trial 4): 31.8%
percentage TNF+ NK cells (NKG2A−/NKG2C− NK cells; Trial 4): 12.1%
percentage of IFNG+ NK cells (NKG2A−/NKG2C− NK cells; Trial 4): 22.2%
percentage CCL3+ NK cells (NKG2A−/NKG2C− NK cells; Trial 5): 30.1%
percentage CD107+ NK cells (NKG2A−/NKG2C− NK cells; Trial 5): 22.7%
percentage TNF+ NK cells (NKG2A−/NKG2C− NK cells; Trial 5): 8.01%
percentage of IFNG+ NK cells (NKG2A−/NKG2C− NK cells; Trial 5): 18.9%
percentage CCL3+ NK cells (NKG2A−/NKG2C− NK cells; Trial 6): 27.4%
percentage CD107+ NK cells (NKG2A−/NKG2C− NK cells; Trial 6): 21.1%
percentage TNF+ NK cells (NKG2A−/NKG2C− NK cells; Trial 6): 3.64%
percentage of IFNG+ NK cells (NKG2A−/NKG2C− NK cells; Trial 6): 8.06%
increase in CCL3+ NK cells (in words) (NKG2A−/NKG2C+ NK cells [1]): slight increases
increase in CD107a+ NK cells (in words) (NKG2A−/NKG2C+ NK cells [1]): slight increases
increase in IFNG+ NK cells (in words) (NKG2A−/NKG2C+ NK cells [1]): no increase
increase in TNF+ NK cells (in words) (NKG2A−/NKG2C+ NK cells [1]): no increase
effect on NKG2A−/NKG2C+ NK cell activation (in words) (NKG2A−/NKG2C+ NK cells [2]; listed as SEQ ID NO. 5): activate
effect on NKG2A−/NKG2C+ NK cell activation (in words) (NKG2A−/NKG2C+ NK cells [2]; listed as h13): activated
percentage of CCL3+ NK cells (NKG2A−/NKG2C+ NK cells [2]; Trial 1): 56.9%
percentage of CD107+ NK cells (NKG2A−/NKG2C+ NK cells [2]; Trial 1): 38.3%
percentage of IFNG+ NK cells (NKG2A−/NKG2C+ NK cells [2]; Trial 1): 18.2%
percentage of TNF+ NK cells (NKG2A−/NKG2C+ NK cells [2]; Trial 1): 9.29%
percentage of CCL3+ NK cells (NKG2A−/NKG2C+ NK cells [2]; Trial 2): 74.9%
percentage of CD107+ NK cells (NKG2A−/NKG2C+ NK cells [2]; Trial 2): 57%
percentage of IFNG+ NK cells (NKG2A−/NKG2C+ NK cells [2]; Trial 2): 28.7%
percentage of TNF+ NK cells (NKG2A−/NKG2C+ NK cells [2]; Trial 2): 20.7%
percentage of CCL3+ NK cells (NKG2A−/NKG2C+ NK cells [2]; Trial 3): 72.4%
percentage of CD107+ NK cells (NKG2A−/NKG2C+ NK cells [2]; Trial 3): 71.2%
percentage of IFNG+ NK cells (NKG2A−/NKG2C+ NK cells [2]; Trial 3): 49.2%
percentage of TNF+ NK cells (NKG2A−/NKG2C+ NK cells [2]; Trial 3): 37.9%
percentage of CCL3+ NK cells (NKG2A−/NKG2C+ NK cells [2]; Trial 4): 60.7%
percentage of CD107+ NK cells (NKG2A−/NKG2C+ NK cells [2]; Trial 4): 57.1%
percentage of IFNG+ NK cells (NKG2A−/NKG2C+ NK cells [2]; Trial 4): 40.8%
percentage of TNF+ NK cells (NKG2A−/NKG2C+ NK cells [2]; Trial 4): 33%
percentage of CCL3+ NK cells (NKG2A−/NKG2C+ NK cells [2]; Trial 5): 61.9%
percentage of CD107+ NK cells (NKG2A−/NKG2C+ NK cells [2]; Trial 5): 56.2%
percentage of IFNG+ NK cells (NKG2A−/NKG2C+ NK cells [2]; Trial 5): 34.2%
percentage of TNF+ NK cells (NKG2A−/NKG2C+ NK cells [2]; Trial 5): 27.4%
percentage of CCL3+ NK cells (NKG2A−/NKG2C+ NK cells [2]; Trial 6): 40.7%
